Measured values from US4745124A, “Orally effective anti-hypertensive agents” (priority 1983, dated 1988).
Where a name gives a salt, the structure may show the parent alone. Read-outs that look alike come from different tables or passages of the source.

Tested on: pressor effects of angiotensin I
Experiment: oral effectiveness: blood pressure response to angiotensin I in anesthetized rats
Type: in vivo, rat
Details: for response vs control in vivo at 10 µmol/kg: Rattus norvegicus, oral 10 μmol/kg, Ex. 246, read-out: Blood Pressure Response to 400 ng/kg of Angiotensin I
Method: Rats (210-290 g body weight) were fasted overnight and then anesthetized with intraperitoneal pentobarbital, 50-60 mg/kg. Tracheostomy was performed and the animals were ventilated mechanically. A cannula was inserted into a femoral vein for injection of angiotensin I or II, and a second cannula was inserted into a common carotid artery for direct measurement of arterial blood pressure. Heparin, 1,000 units, was injected via the femoral vein to prevent coagulation. Blood pressure was measured with a pressure transducer connected to a polygraph. The rats were injected with 80 ng of angiotensin I or angiotensin II in 20 μl of 0.9 g % NaCl; an amount of antiotensin I or II sufficient to raise mean arterial blood pressure by 27-40 mm Hg. After the responsiveness of a given rat to angiotensins I and II was established, compound (I), at 2 or 5 mg/kg (drug dissolved in 0.5 ml of H2 O plus 10 μl of 1N NaHCO3), was given via a stomach tube. At timed intervals, the effects of 80 ng of angiotensin I or angiotensin II on mean arterial blood pressure were tested.
Rats were prepared as described in Example 222. Compound (II) [N-benzoyl-L-phenylalanylthiopropanoyl)-L-proline] was given orally, via a stomach tube, at a dose of 12 mg/kg or 20 mg/kg. Compound (II) was dissolved in 0.5 ml of H2 O plus 10 μl of 1N NaHCO3. In all other respects, the experimental preparations were exactly as described in Example 222.
Rats (210-290 g body weight) were fasted overnight and then anesthetized with intraperitoneal pentobarbital, 50-60 mg/kg. Tracheostomy was performed and the animals were ventilated mechanically. A cannula was inserted into a femoral vein for injection of angiotensin I or II, and a second cannula was inserted into a common carotid artery for direct measurement of arterial blood pressure. Heparin, 1,000 units, was injected via the femoral vein to prevent coagulation. Blood pressure was measured with a pressure transducer connected to a polygraph. The rats were injected with 160 ng of angiotensin I or 80 ng of angiotensin II in 20 μl of 0.9 g % NaCl; an amount of angiotensin I or II sufficient to raise mean arterial blood pressure by 27-40 mm Hg. After the responsiveness of a given rat to angiotensins I and II was established, compound (B) at 10 mg (drug dissolved in 0.5 ml of H2 O plus 10 μl of 1N NaHCO3), was given via a stomach tube. At timed intervals, the effects of 160 ng of angiotensin I or 80 ng of angiotensin II on mean arterial blood pressure were tested. Results are shown below:
Rats (210-290 g body weight) were fasted overnight and then anesthetized with intraperitoneal pentobarbital, 50-60 mg/kg. Tracheostomy was performed and the animals were ventilated mechanically. A cannula was inserted into a femoral vein for injection of angiotensin I, and a second cannula was inserted into a common carotid artery for direct measurement of arterial blood pressure. Heparin, 1,000 units, was injected via the femoral vein to prevent coagulation. Blood pressure was measured with a pressure transducer connected to a polygraph. The rats were injected with 400 ng/kg of angiotensin I in 20 μl of 0.9 g % NaCl; an amount of angiotensin I sufficient to raise mean arterial blood pressure by 39 mm Hg. After the responsiveness of a given rat to angiotensin I was established, the named compound at 17 μmol/kg (drug dissolved in 0.15 ml of H2 O plus 10 μl of 1N NaHCO3), was given via a stomach tube. At timed intervals, the effects of 400 ng/kg of angiotensin I on mean arterial blood pressure were tested. Results are shown below:
Rats (190-290 g body weight) were fasted overnight and then anesthetized with intraperitoneal pentobarbital, 50-60 mg/kg. Tracheostomy was performed and the animals were ventilated mechanically. A cannula was inserted into a femoral vein for injection of angtiotensin I, and a second cannula was inserted into a common carotid artery for direct measurement of arterial blood pressure. […]

C[C@H](CSC(=O)[C@@H](N)Cc1ccccc1)C(=O)N1CCC[C@H]1C(=O)O [N-alpha-(3-L-phenylalanylthio-2-D-methylpropanoyl)-L-proline]
Blood Pressure Response to 400 ng/kg of Angiotensin I (oral 20 μmol/kg, 6 min, Ex. 237): 77 % of Control | Blood Pressure Response to 400 ng/kg of Angiotensin I (oral 20 μmol/kg, 10 min, Ex. 237): 69 % of Control | Blood Pressure Response to 400 ng/kg of Angiotensin I (oral 20 μmol/kg, 19 min, Ex. 237): 46 % of Control | Blood Pressure Response to 400 ng/kg of Angiotensin I (oral 20 μmol/kg, 25 min, Ex. 237): 38 % of Control | Blood Pressure Response to 400 ng/kg of Angiotensin I (oral 20 μmol/kg, 29 min, Ex. 237): 38 % of Control | Blood Pressure Response to 400 ng/kg of Angiotensin I (oral 20 μmol/kg, 38 min, Ex. 237): 33 % of Control | Blood Pressure Response to 400 ng/kg of Angiotensin I (oral 20 μmol/kg, 50 min, Ex. 237): 33 % of Control | Blood Pressure Response to 400 ng/kg of Angiotensin I (oral 20 μmol/kg, 57 min, Ex. 237): 31 % of Control | Blood Pressure Response to 400 ng/kg of Angiotensin I (oral 20 μmol/kg, 65 min, Ex. 237): 31 % of Control | Blood Pressure Response to 400 ng/kg of Angiotensin I (oral 20 μmol/kg, 74 min, Ex. 237): 26 % of Control | Blood Pressure Response to 400 ng/kg of Angiotensin I (oral 20 μmol/kg, 88 min, Ex. 237): 36 % of Control

CC(=O)N[C@@H](Cc1ccccc1)C(=O)SC[C@@H](C)C(=O)N1CCC[C@H]1C(=O)O [N-alpha-[3-(N-alpha-acetyl-L-phenylalanylthio)-2-D-methylpropanoyl]-L-proline]
Blood Pressure Response to 400 ng/kg of Angiotensin I (oral 13.6 μmole/kg, 3 min, Ex. 235): 40 % of Control | Blood Pressure Response to 400 ng/kg of Angiotensin I (oral 13.6 μmole/kg, 7 min, Ex. 235): 40 % of Control | Blood Pressure Response to 400 ng/kg of Angiotensin I (oral 13.6 μmole/kg, 13 min, Ex. 235): 28 % of Control | Blood Pressure Response to 400 ng/kg of Angiotensin I (oral 13.6 μmole/kg, 18 min, Ex. 235): 24 % of Control | Blood Pressure Response to 400 ng/kg of Angiotensin I (oral 13.6 μmole/kg, 23 min, Ex. 235): 20 % of Control | Blood Pressure Response to 400 ng/kg of Angiotensin I (oral 13.6 μmole/kg, 31 min, Ex. 235): 18 % of Control | Blood Pressure Response to 400 ng/kg of Angiotensin I (oral 13.6 μmole/kg, 34 min, Ex. 235): 20 % of Control | Blood Pressure Response to 400 ng/kg of Angiotensin I (oral 13.6 μmole/kg, 42 min, Ex. 235): 20 % of Control | Blood Pressure Response to 400 ng/kg of Angiotensin I (oral 13.6 μmole/kg, 48 min, Ex. 235): 16 % of Control | Blood Pressure Response to 400 ng/kg of Angiotensin I (oral 13.6 μmole/kg, 58 min, Ex. 235): 16 % of Control | Blood Pressure Response to 400 ng/kg of Angiotensin I (oral 13.6 μmole/kg, 67 min, Ex. 235): 20 % of Control | Blood Pressure Response to 400 ng/kg of Angiotensin I (oral 13.6 μmole/kg, 80 min, Ex. 235): 20 % of Control | Blood Pressure Response to 400 ng/kg of Angiotensin I (oral 13.6 μmole/kg, 90 min, Ex. 235): 18 % of Control | Blood Pressure Response to 400 ng/kg of Angiotensin I (oral 13.6 μmole/kg, 100 min, Ex. 235): 16 % of Control | Blood Pressure Response to 400 ng/kg of Angiotensin I (oral 13.6 μmole/kg, 112 min, Ex. 235): 20 % of Control | Blood Pressure Response to 400 ng/kg of Angiotensin I (oral 13.6 μmole/kg, 125 min, Ex. 235): 20 % of Control | Blood Pressure Response to 400 ng/kg of Angiotensin I (oral 13.6 μmole/kg, 137 min, Ex. 235): 30 % of Control | Blood Pressure Response to 400 ng/kg of Angiotensin I (oral 13.6 μmole/kg, 167 min, Ex. 235): 50 % of Control

C[C@H](CSC(=O)[C@H](Cc1ccccc1)NC(=O)C1CCCC1)C(=O)N1CCC[C@H]1C(=O)O [N-alpha-[3-(N-alpha-cyclopentylcarbonyl-L-phenylalanylthio)-2-D-methylpropanoyl]-L-proline]
Blood Pressure Response to 400 ng/kg of Angiotensin I (oral 23 μmole/kg, 2 min, Ex. 231): 71 % of Control | Blood Pressure Response to 400 ng/kg of Angiotensin I (oral 23 μmole/kg, 6 min, Ex. 231): 63 % of Control | Blood Pressure Response to 400 ng/kg of Angiotensin I (oral 23 μmole/kg, 16 min, Ex. 231): 49 % of Control | Blood Pressure Response to 400 ng/kg of Angiotensin I (oral 23 μmole/kg, 23 min, Ex. 231): 43 % of Control | Blood Pressure Response to 400 ng/kg of Angiotensin I (oral 23 μmole/kg, 37 min, Ex. 231): 43 % of Control | Blood Pressure Response to 400 ng/kg of Angiotensin I (oral 23 μmole/kg, 48 min, Ex. 231): 40 % of Control | Blood Pressure Response to 400 ng/kg of Angiotensin I (oral 23 μmole/kg, 64 min, Ex. 231): 26 % of Control | Blood Pressure Response to 400 ng/kg of Angiotensin I (oral 23 μmole/kg, 71 min, Ex. 231): 26 % of Control | Blood Pressure Response to 400 ng/kg of Angiotensin I (oral 23 μmole/kg, 84 min, Ex. 231): 37 % of Control | Blood Pressure Response to 400 ng/kg of Angiotensin I (oral 23 μmole/kg, 96 min, Ex. 231): 37 % of Control | Blood Pressure Response to 400 ng/kg of Angiotensin I (oral 23 μmole/kg, 109 min, Ex. 231): 40 % of Control | Blood Pressure Response to 400 ng/kg of Angiotensin I (oral 23 μmole/kg, 124 min, Ex. 231): 54 % of Control | Blood Pressure Response to 400 ng/kg of Angiotensin I (oral 23 μmole/kg, 140 min, Ex. 231): 51 % of Control | Blood Pressure Response to 400 ng/kg of Angiotensin I (oral 23 μmole/kg, 157 min, Ex. 231): 63 % of Control | Blood Pressure Response to 400 ng/kg of Angiotensin I (oral 23 μmole/kg, 171 min, Ex. 231): 77 % of Control

C[C@H](CSC(=O)C(Cc1ccccc1)NC(=O)c1ccccc1)C(=O)N1CCC[C@H]1C(=O)O (stereo partly drawn) [sodium salt of N-alpha[3-(N-alpha-benzoyl-D,L-phenylalanylthio)-2-D-methylpropanoyl]-L-proline]
response vs control in vivo at 10 µmol/kg (5 min, 5 min): 82% | response vs control in vivo at 10 µmol/kg (10 min, 10 min): 33% | response vs control in vivo at 10 µmol/kg (0.25 h, 15 min): 24% | response vs control in vivo at 10 µmol/kg (20 min, 20 min): 27% | response vs control in vivo at 10 µmol/kg (0.5 h, 30 min): 27% | response vs control in vivo at 10 µmol/kg (40 min, 40 min): 22% | response vs control in vivo at 10 µmol/kg (50 min, 50 min): 24% | response vs control in vivo at 10 µmol/kg (1 h, 60 min): 27% | response vs control in vivo at 10 µmol/kg (1.5 h, 90 min): 36% | response vs control in vivo at 10 µmol/kg (2 h, 120 min): 44% | response vs control in vivo at 10 µmol/kg (2.5 h, 150 min): 62% | response vs control in vivo at 10 µmol/kg (3 h, 180 min): 60% | response vs control in vivo at 10 µmol/kg (3.5 h, 210 min): 71% | response vs control in vivo at 10 µmol/kg (4 h, 240 min): 73%
